Columns and labels:
VMAT2 [1] = molecular target: T1, VMAT2 (Mus musculus, UniProt Q8BRU6); test: FFN206 uptake upregulation assay (18-h treatment, washout) in HEK-VMAT2 cells; assay type: cell-based; parameters: The full-length mouse and human SLC18A2 cDNAs encoding VMAT2 were cloned into pcDNA3.1 vectors; expressed in transfected cells; conditions: for Effect on VMAT2 activity, sustained: 10 μM, washout, vs vehicle; for Effect on VMAT2 activity, sustained / Effect on VMAT2 activity, sustained, known VMAT2 inhibitors: 18 h; for Emax, % vehicle (mean ± SEM) / EC50: 18 h treatment followed by washout; for Emax, % vehicle (mean ± SEM): at Emax concentration; for Emax concentration: 18 h treatment, concentration giving Emax; for Hill slope (upregulation): 18 h upregulation curve fit; for EC50: HEK-VMAT2 cells, read-out: EC50 (95% CI), VMAT2 upregulation; for Effect on VMAT2 activity, sustained, known VMAT2 inhibitors: increasing concentrations (Fig. S5)
VMAT2 [2] = molecular target: T1, VMAT2; test: FFN206 uptake inhibition assay (30-min treatment) in HEK-VMAT2 cells; conditions: for Hill Slope (inhibition): 30 min inhibition curve fit; for Imax, % vehicle (mean ± SEM): VMAT2 activity at 100 μM compound, 30 min, normalized to vehicle (100%)
Method: We detected colocalization of VMAT2 and FFN206 using epifluorescence microscopy (Fig. S2) and used FFN206 uptake to measure VMAT2 activity in HEK cells stably expressing mouse VMAT2 (HEK-VMAT2). We tested seven tricyclics and three tetracyclics that are approved for clinical use in humans (Fig. 1A, B). […] Next, we assessed the potency of the tricyclics and tetracyclics using dose response experiments.
For the inhibition assay, HEK-VMAT2 cells were seeded at 50,000 cells/well on day 1. […] Cells were incubated with FFN206 for 1hr. FFN206 uptake was terminated by aspirating the medium, and cells were washed twice with 200μL warm PBS (supplemented with 500μM MgCl2 and 900μM CaCl2), each with 5min incubation. Subsequently, 100μL warm PBS was added to each well and the plate was read with a Mithras LB 940 plate reader at excitation/emission filters 380nm/450nm.

[3] = system: monoamine transporter mRNA (VMAT2, VMAT1, DAT, NET, SERT); test: RT-qPCR of endogenous monoamine transporters mRNA in BE(2)-M17 cells; assay type: cell-based, human; conditions: 10 μM, 18 h
Method: (§3) HEK-VMAT2, HEK-YFP-DAT, HEK-SERT, and BE(2)-M17 cells were seeded in 6-well tissue culture plates at 1,000,000 cells/well density. […] On the third day, medium was aspirated and the cells were directly collected in 1 mL/well of Trizol for RNA isolation [26]. RNA was reverse-transcribed into cDNA using the SuperScript™ IV VILO™ Master Mix with ezDNase™ Enzyme. Quantitative RT-qPCR was performed using PowerUp™ SYBR™ Green Master Mix and QuantStudio 3 Real-Time PCR System (ThermoFisher Scientific). The relative fold of gene expression was calculated as 2^-(∆∆Ct) normalized to GAPDH levels.

hSERT mRNA = test: RT-qPCR of hSERT in HEK-SERT cells; conditions: 100 μM, 18 h, HEK293 cells
Method: as §3

SERT (SLC6A4) = molecular target: T2, SERT (SLC6A4) (Homo sapiens, UniProt P31645); assay type: cell-based
T2 construct: expressed in transfected cells
Method: (§1) HEK293, HEK-VMAT2, HEK-YFP-DAT, and HEK-SERT cells were seeded at 5,000,000 cells/dish density in 10 cm tissue culture dishes. […] On the collection day, cells were washed once with cold PBS, then harvested with 2 mL Tris-EDTA buffer (25 mM Tris-HCl, 1 mM EDTA, pH 7.4) containing freshly-added protease/phosphatase inhibitors. The cells were mechanically lysed on ice by Polytron (medium setting, 5 sec on, 5 sec off, two cycles), and centrifuged at 800 x g for 10 min at 4 °C to pellet the nuclear fraction. […] The supernatant was discarded and the pellet containing membrane proteins was resuspended with Tris-EDTA buffer with inhibitors and 0.2% SDS by vortexing until the pellet was dissolved. The protein concentration was determined using Pierce™ BCA Protein Assay Kits following the manufacturer’s instructions.
Electrophoretic resolution was done in MOPS-SDS running buffer (50 mM MOPS, 50 mM Tris, 0.1% SDS, 1 mM EDTA). The proteins were transferred onto a […] PVDF membrane and stained using Revert™ 700 Total Protein Stain. The resolved proteins were visualized at 700 nm on an Odyssey® M imaging system (LI-COR, Inc.). […] The blots were visualized under 700 nm and 800 nm channels on the Odyssey® M imaging system (LI-COR, Inc.) and quantified using ImageJ and Empiria Studio.

hDAT mRNA = test: RT-qPCR of hDAT in HEK-YFP-DAT cells; assay type: cell-based, human; conditions: 100 μM, 18 h, HEK293 cells
Method: as §3

VMAT2 [4] = molecular target: T1, VMAT2; conditions: 100 μM, 18 h, HEK-VMAT2 cells
Method: as §1
(§2) Electrophoretic resolution was done in MOPS-SDS running buffer (50 mM MOPS, 50 mM Tris, 0.1% SDS, 1 mM EDTA). The proteins were transferred onto a […] PVDF membrane and stained using Revert™ 700 Total Protein Stain. The resolved proteins were visualized at 700 nm on an Odyssey® M imaging system (LI-COR, Inc.). […] For the VMAT2 blot, the membrane was incubated with rabbit serum (in 50% glycerol) containing anti-mVMAT2 antibody against C-terminal peptide ([…]) at 1:3000 dilution overnight at 4 °C [24]. For the YFP-DAT blot, the membrane was incubated with rabbit-anti-GFP antibody (A11122) at 1:1500 dilution for 2 h at room temperature. For the SERT blot, the membrane was incubated with rabbit anti-SERT antibody (A104336, Antibodies.com) at 1:1000 dilution overnight at 4 °C. IRDye® 800CW Goat anti-Rabbit IgG secondary antibody at 1:7000 dilution in 3% non-fat milk in TBST was used for all blots. The blots were visualized under 700 nm and 800 nm channels on the Odyssey® M imaging system (LI-COR, Inc.) and quantified using ImageJ and Empiria Studio.

DAT (SLC6A3) = DAT (SLC6A3) (Homo sapiens, UniProt Q01959); conditions: 100 μM, 18 h, HEK-YFP-DAT cells
Method: as §1, §2

mVMAT2 mRNA = test: RT-qPCR of mVMAT2 in HEK-VMAT2 cells; conditions: 100 μM, 18 h, HEK293 cells
Method: as §3

[5] = system: nine missense VMAT2 BMVTD variants; test: FFN206 uptake of transiently transfected VMAT2 BMVTD variants in HEK293T cells; assay type: cell-based, human; conditions: 50 μM, 18 h, total FFN206 fluorescence
VMAT2 P387L = VMAT2 P387L (Homo sapiens, UniProt Q05940, P387L); conditions: 18 h, increasing concentration
[6] = ref PubChem; cited from earlier work
VMAT2 P237H = VMAT2 P237H (Homo sapiens, UniProt Q05940, P237H); conditions: 18 h, increasing concentration
VMAT2 [7] = molecular target: VMAT2 (Homo sapiens, UniProt Q05940); conditions: 10 μM, 18 h, BE(2)-M17 cells

Structure (SMILES)	Effect on VMAT2 activity, sustained (VMAT2 [1])	Emax, % vehicle (mean ± SEM) (VMAT2 [1])	Emax concentration (VMAT2 [1])	Hill slope (upregulation) (VMAT2 [1])	IC50 (VMAT2 [2])	Hill Slope (inhibition) (VMAT2 [2])	Imax, % vehicle (mean ± SEM) (VMAT2 [2])	EC50 (VMAT2 [1])	also measured
CNCCC=C1c2ccccc2CCc2ccccc21 [NOR, Nortriptyline]	significant upregulation of VMAT2 activity	207.90 ± 18.90 % vehicle	31.62 µM	0.915	13.3 µM	–0.920	8.73 ± 1.11 % vehicle	–	–
CN(C)CCC=C1c2ccccc2CCc2ccccc21 [AMI, Amitriptyline]	–	237.26 ± 7.63 % vehicle	31.62 µM	1.728	12.4 µM	–1.173	8.47 ± 1.88 % vehicle	–	–
CN(C)CCCN1c2ccccc2CCc2ccccc21 [IMI, Imipramine]	significant upregulation of VMAT2 activity	245.36 ± 15.06 % vehicle	–	1.505	17.3 µM	–1.195	–	29.9 µM	Monoamine transporter mRNA (including VMAT2) [3]: no upregulation in any monoamine transporter mRNA; Emax, % vehicle (mean ± SEM) (VMAT2 [1]; listed as imipramine): 245.36 % vehicle; SERT mRNA expression (hSERT mRNA): elevated mRNA expression; Total SERT protein (SERT (SLC6A4)): significantly increased total SERT protein; DAT mRNA expression (hDAT mRNA): elevated mRNA expression; Total VMAT2 protein (VMAT2 [4]): significant increase; Total DAT protein (DAT (SLC6A3)): did not affect total DAT protein; VMAT2 mRNA expression (mVMAT2 mRNA): elevated mRNA expression; Activity of all VMAT2 variants [5]: significant upregulation of activity of all VMAT2 variants
O=C(CCCN1CCC(O)(c2ccc(Cl)cc2)CC1)c1ccc(F)cc1 [haloperidol]	–	–	–	–	–	–	–	–	Effect on VMAT2 activity, sustained, known VMAT2 inhibitors (VMAT2 [1]): no upregulation of VMAT2 activity was observed
CN1CCN2c3ncccc3Cc3ccccc3C2C1 (stereo not shown) [MIR, mirtazapine]	–	175.11 ± 7.95 % vehicle	100 µM	2.486	170 µM	–0.978	63.27 ± 7.1 % vehicle	35.1 µM	–
CNCCCN1c2ccccc2CCc2ccccc21 [DES, Desipramine]	significant upregulation of VMAT2 activity	177.59 ± 5.96 % vehicle	56.23 µM	1.530	16.2 µM	–1.176	7.51 ± 1.28 % vehicle	17.1 µM	–
CC(CN(C)C)CN1c2ccccc2CCc2ccccc21 (stereo not shown) [TRI, Trimipramine]	significant upregulation of VMAT2 activity	194.63 ± 22.32 % vehicle	100 µM	1.939	13.1 µM	–1.173	5.87 ± 1.33 % vehicle	31.1 µM	–
CNCCCC1c2ccccc2C=Cc2ccccc21 [PRO, Protriptyline]	significant upregulation of VMAT2 activity	223.92 ± 11.02 % vehicle	31.62 µM	0.777	4.35 µM	–1.042	2.93 ± 0.24 % vehicle	–	–
COc1cc2c(cc1OC)C1CC(=O)C(CC(C)C)CN1CC2 (stereo not shown) [TBZ, tetrabenazine]	–	–	–	–	0.037 µM	–0.598	9.51 ± 0.67 % vehicle	–	Effect on VMAT2 activity, sustained, known VMAT2 inhibitors (VMAT2 [1]): no upregulation of VMAT2 activity was observed
CN1CCN2c3ccccc3Cc3ccccc3C2C1 (stereo not shown) [MIA, Mianserin]	–	–	–	–	–	–	–	–	Variant VMAT2 activity, dose-response (VMAT2 P387L): dose-dependent upregulation; logP [6]: 3.4; Variant VMAT2 activity, dose-response (VMAT2 P237H): dose-dependent upregulation; Endogenous VMAT2 activity (VMAT2 [7]; followed by washout): 270 % of vehicle; Endogenous VMAT2 activity without washout (VMAT2 [7]; without drug washout): significant upregulation of endogenous VMAT2 activity; Total DAT protein (DAT (SLC6A3)): did not affect total DAT protein; Activity of all VMAT2 variants [5]: significant upregulation of activity of all VMAT2 variants

Source: article PMC11399425, “Tricyclic and tetracyclic antidepressants upregulate VMAT2 activity and rescue disease-causing VMAT2 variants” (Neuropsychopharmacology, 2024)
